Measurements published in US10456407B2, “Combination therapy for treating cancer” (Epizyme, Inc., priority 2015, dated 2019).
Values joined by “and” are separate entries in the source; they are usually repeats but may differ in a detail not shown here. Equal values may be shown once.

Test system: DOHH2 cells
Test: RT2 Glucocorticoid signaling PCR array, DOHH2 cell line (Table 4b)
Format: cell-based
Details: DOHH2, 4 days

CCN(c1cc(-c2ccc(CN3CCOCC3)cc2)cc(C(=O)NCc2c(C)cc(C)[nH]c2=O)c1C)C1CCOCC1 [Compound 44]
ACTB Ct Values: 14.519 | ADARB1 Ct Values: 31.431 | AFF1 Ct Values: 23.888 | AK2 Ct Values: 20.173 | AMPD3 Ct Values: 26.146 | ANGPTL4 Ct Values: 30.820 | ANXA4 Ct Values: 24.273 | ARID68 Ct Values: 23.782 | ASPH Ct Values: 22.823 | ATF4 Ct Values: 19.190 | B2M Ct Values: 18.576 | BCL6 Ct Values: 21.323 | BMPER Ct Values: 39.092 | CALCR Ct Values: 33.360 | CEBPA Ct Values: 30.676 | CEBPB Ct Values: 23.925 | COL4A2 Ct Values: 34.119 | CREB1 Ct Values: 22.746 | CREB3 Ct Values: 24.840 | CREB3L4 Ct Values: 24.110 | CTGF Ct Values: 32.760 | CYB561 Ct Values: 31.945 | DDIT4 Ct Values: 23.508 | DUSP1 Ct Values: 27.132 | EDN1 Ct Values: 32.260 | EHD3 Ct Values: 28.852 | ERRFI1 Ct Values: 30.163 | FK8PS Ct Values: 21.520 | FOSL2 Ct Values: 29.872 | GAPDH Ct Values: 16.197 | GDPD1 Ct Values: 27.570 | GHRHR Ct Values: 39.644 | GLUL Ct Values: 36.671 | GOT1 Ct Values: 23.126 | H6PD Ct Values: 24.377 | HNRPLL Ct Values: 29.151 | HPRT1 Ct Values: 21.561 | IL1RN Ct Values: 32.271 | IL6R Ct Values: 31.962 | KLF9 Ct Values: 28.439 | KLF13 Ct Values: 22.420 | LOX Ct Values: 32.997 | MERTK Ct Values: 32.456 | NFKBIA Ct Values: 22.625 | NR3C1 Ct Values: 22.430 | PDCD7 Ct Values: 23.417 | PDGFRB Ct Values: 35.193 | PDP1 Ct Values: 25.175 | PER1 Ct Values: 24.717 | PER2 Ct Values: 23.835 | PIK3R1 Ct Values: 23.712 | PLEKHF1 Ct Values: 28.946 | POU2F1 Ct Values: 24.003 | POU2F2 Ct Values: 22.167 | RASA3 Ct Values: 27.636 | RGS2 Ct Values: 24.861 | RHOB Ct Values: 30.745 | RPLP0 Ct Values: 14.935 | SESN1 Ct Values: 23.848 | SGK1 Ct Values: 27.821 | SLC10A6 Ct Values: 36.435 | SLC19A2 Ct Values: 24.859 | SLC22A5 Ct Values: 27.992 | SNTA1 Ct Values: 24.550 | SPHK1 Ct Values: 28.863 | SPSB1 Ct Values: 26.652 | STAT5A Ct Values: 23.771 | STAT5B Ct Values: 22.328 | TBL1XR1 Ct Values: 20.994 | TNF Ct Values: 31.849 | TNFAIP3 Ct Values: 27.520 | TSC22D3 Ct Values: 24.752 | USP2 Ct Values: 23.684 | USPS4 Ct Values: 25.892 | VDR Ct Values: 26.426 | VLDLR Ct Values: 27.232 | ZFP36 Ct Values: 23.980 | ZHX3 Ct Values: 24.611 | ZNF281 Ct Values: 23.541 | PPC Ct Values (array control, three lines): 18.672 and 19.142 and 18.711 | RTC Ct Values (array control, three lines): 21.345 and 21.410 and 21.384 | ACTB ΔCT (B2M) (normalized to B2M): −4.057 | ADARB1 ΔCT (B2M) (normalized to B2M): 12.855 | AFF1 ΔCT (B2M) (normalized to B2M): 5.312 | AK2 ΔCT (B2M) (normalized to B2M): 1.597 | AMPD3 ΔCT (B2M) (normalized to B2M): 7.570 | ANGPTL4 ΔCT (B2M) (normalized to B2M): 12.244 | ANXA4 ΔCT (B2M) (normalized to B2M): 5.697 | ASPH ΔCT (B2M) (normalized to B2M): 4.247 | ATF4 ΔCT (B2M) (normalized to B2M): 0.614 | B2M ΔCT (B2M) (normalized to B2M): 0.000 | BCL6 ΔCT (B2M) (normalized to B2M): 2.747 | BMPER ΔCT (B2M) (normalized to B2M): 20.516 | CALCR ΔCT (B2M) (normalized to B2M): 15.054 | CEBPA ΔCT (B2M) (normalized to B2M): 12.100 | CEBPB ΔCT (B2M) (normalized to B2M): 5.349 | COL4A2 ΔCT (B2M) (normalized to B2M): 15.543 | CREB1 ΔCT (B2M) (normalized to B2M): 4.170 | CREB3L4 ΔCT (B2M) (normalized to B2M): 5.534 | CREB3 ΔCT (B2M) (normalized to B2M): 6.264 | CTGF ΔCT (B2M) (normalized to B2M): 14.184 | CYB561 ΔCT (B2M) (normalized to B2M): 13.369 | DDIT4 ΔCT (B2M) (normalized to B2M): 4.932 | DUSP1 ΔCT (B2M) (normalized to B2M): 8.556 | EDN1 ΔCT (B2M) (normalized to B2M): 13.684 | EHD3 ΔCT (B2M) (normalized to B2M): 10.276 | ERRFI1 ΔCT (B2M) (normalized to B2M): 11.587 | FK8PS ΔCT (B2M) (normalized to B2M): 2.944 | FOSL2 ΔCT (B2M) (normalized to B2M): 11.296 | GAPDH ΔCT (B2M) (normalized to B2M): −2.379 | GDPD1 ΔCT (B2M) (normalized to B2M): 8.994 | GHRHR ΔCT (B2M) (normalized to B2M): 21.068 | GLUL ΔCT (B2M) (normalized to B2M): 18.095 | GOT1 ΔCT (B2M) (normalized to B2M): 4.550 | H6PD ΔCT (B2M) (normalized to B2M): 5.801 | HNRPLL ΔCT (B2M) (normalized to B2M): 10.575 | HPRT1 ΔCT (B2M) (normalized to B2M): 2.985 | IL1RN ΔCT (B2M) (normalized to B2M): 13.695 | IL6R ΔCT (B2M) (normalized to B2M): 13.386 | IL6 ΔCT (B2M) (normalized to B2M): 15.874 | KLF9 ΔCT (B2M) (normalized to B2M): 9.863 | KLF13 ΔCT (B2M) (normalized to B2M): 3.844 | LOX ΔCT (B2M) (normalized to B2M): 14.421 | MERTK ΔCT (B2M) (normalized to B2M): 13.880 | NFKBIA ΔCT (B2M) (normalized to B2M): 4.049 | NR3C1 ΔCT (B2M) (normalized to B2M): 3.854 | PDCD7 ΔCT (B2M) (normalized to B2M): 4.841 | PDGFRB ΔCT (B2M) (normalized to B2M): 16.617 | PDP1 ΔCT (B2M) (normalized to B2M): 6.599 | PER1 ΔCT (B2M) (normalized to B2M): 6.141 | PER2 ΔCT (B2M) (normalized to B2M): 5.259 | PIK3R1 ΔCT (B2M) (normalized to B2M): 5.136 | PLEKHF1 ΔCT (B2M) (normalized to B2M): 10.370 | POU2F1 ΔCT (B2M) (normalized to B2M): 5.427 | POU2F2 ΔCT (B2M) (normalized to B2M): 3.591 | RASA3 ΔCT (B2M) (normalized to B2M): 9.060 | RGS2 ΔCT (B2M) (normalized to B2M): 6.285 | RHOB ΔCT (B2M) (normalized to B2M): 12.169 | RPLP0 ΔCT (B2M) (normalized to B2M): −3.641 | SESN1 ΔCT (B2M) (normalized to B2M): 5.272 | SGK1 ΔCT (B2M) (normalized to B2M): 9.245 | SLC10A6 ΔCT (B2M) (normalized to B2M): 17.859 | SLC19A2 ΔCT (B2M) (normalized to B2M): 6.283 | SLC22A5 ΔCT (B2M) (normalized to B2M): 9.416 | SNTA1 ΔCT (B2M) (normalized to B2M): 5.974 | SPHK1 ΔCT (B2M) (normalized to B2M): 10.287 | SPSB1 ΔCT (B2M) (normalized to B2M): 8.076 | STAT5A ΔCT (B2M) (normalized to B2M): 5.195 | STAT5B ΔCT (B2M) (normalized to B2M): 3.752 | TBL1XR1 ΔCT (B2M) (normalized to B2M): 2.415 | TNF ΔCT (B2M) (normalized to B2M): 13.273 | TNFAIP3 ΔCT (B2M) (normalized to B2M): 8.944 | TSC22D3 ΔCT (B2M) (normalized to B2M): 6.176 | USP2 ΔCT (B2M) (normalized to B2M): 5.108 | USPS4 ΔCT (B2M) (normalized to B2M): 7.316 | VDR ΔCT (B2M) (normalized to B2M): 7.850 | VLDLR ΔCT (B2M) (normalized to B2M): 8.656 | ZFP36 ΔCT (B2M) (normalized to B2M): 5.404 | ZHX3 ΔCT (B2M) (normalized to B2M): 6.035 | ZNF281 ΔCT (B2M) (normalized to B2M): 4.965 | RTC ΔCT (B2M) (normalized to B2M, array control, three lines): 2.769 and 2.834 and 2.808 | ADARB1 ΔΔCT (vs DMSO): 0.046 | AFF1 ΔΔCT (vs DMSO): −0.363 | AK2 ΔΔCT (vs DMSO): 0.272 | AMPD3 ΔΔCT (vs DMSO): 0.178 | ANGPTL4 ΔΔCT (vs DMSO): 0.119 | ANXA4 ΔΔCT (vs DMSO): −0.111 | ARID68 ΔΔCT (vs DMSO): 0.334 | ASPH ΔΔCT (vs DMSO): 0.286 | ATF4 ΔΔCT (vs DMSO): 0.467 | BCL6 ΔΔCT (vs DMSO): 0.227 | BMPER ΔΔCT (vs DMSO): 1.488 | CEBPA ΔΔCT (vs DMSO): −3.545 | CEBPB ΔΔCT (vs DMSO): 0.447 | COL4A2 ΔΔCT (vs DMSO): 2.238 | CREB1 ΔΔCT (vs DMSO): 0.249 | CREB3L4 ΔΔCT (vs DMSO): 0.138 | CREB3 ΔΔCT (vs DMSO): 0.344 | CTGF ΔΔCT (vs DMSO): −0.518 | CYB561 ΔΔCT (vs DMSO): −5.412 | DDIT4 ΔΔCT (vs DMSO): 0.007 | DUSP1 ΔΔCT (vs DMSO): −0.039 | EDN1 ΔΔCT (vs DMSO): 1.460 | EHD3 ΔΔCT (vs DMSO): −3.030 | ERRFI1 ΔΔCT (vs DMSO): −1.929 | FK8PS ΔΔCT (vs DMSO): −3.032 | FOSL2 ΔΔCT (vs DMSO): −1.462 | GDPD1 ΔΔCT (vs DMSO): 0.471 | GHRHR ΔΔCT (vs DMSO): 2.393 | GLUL ΔΔCT (vs DMSO): 0.971 | GOT1 ΔΔCT (vs DMSO): 0.132 | H6PD ΔΔCT (vs DMSO): 0.093 | HNRPLL ΔΔCT (vs DMSO): −0.740 | KLF9 ΔΔCT (vs DMSO): 0.181 | KLF13 ΔΔCT (vs DMSO): −0.098 | LOX ΔΔCT (vs DMSO): −0.132 | MERTK ΔΔCT (vs DMSO): −0.108 | NFKBIA ΔΔCT (vs DMSO): 0.167 | NR3C1 ΔΔCT (vs DMSO): 0.261 | PDCD7 ΔΔCT (vs DMSO): 0.194 | PDP1 ΔΔCT (vs DMSO): −0.255 | PER1 ΔΔCT (vs DMSO): 0.206 | PER2 ΔΔCT (vs DMSO): −0.374 | PIK3R1 ΔΔCT (vs DMSO): −0.032 | PLEKHF1 ΔΔCT (vs DMSO): −0.507 | POU2F1 ΔΔCT (vs DMSO): 0.058 | POU2F2 ΔΔCT (vs DMSO): 0.131 | RASA3 ΔΔCT (vs DMSO): 0.917 | RGS2 ΔΔCT (vs DMSO): 0.504 | RHOB ΔΔCT (vs DMSO): −1.483 | SESN1 ΔΔCT (vs DMSO): 0.055 | SGK1 ΔΔCT (vs DMSO): 0.621 | SLC19A2 ΔΔCT (vs DMSO): −0.308 | SLC22A5 ΔΔCT (vs DMSO): 0.033 | SNTA1 ΔΔCT (vs DMSO): 0.399 | SPHK1 ΔΔCT (vs DMSO): −1.381 | SPSB1 ΔΔCT (vs DMSO): 0.025 | STAT5A ΔΔCT (vs DMSO): −0.033 | STAT5B ΔΔCT (vs DMSO): 0.258 | TBL1XR1 ΔΔCT (vs DMSO): 0.030 | TNF ΔΔCT (vs DMSO): 0.954 | TNFAIP3 ΔΔCT (vs DMSO): −0.307 | TSC22D3 ΔΔCT (vs DMSO): 0.009 | USP2 ΔΔCT (vs DMSO): 0.013 | USPS4 ΔΔCT (vs DMSO): −0.274 | VDR ΔΔCT (vs DMSO): −0.547 | VLDLR ΔΔCT (vs DMSO): 0.499 | ZFP36 ΔΔCT (vs DMSO): 0.243 | ZHX3 ΔΔCT (vs DMSO): −0.156 | ZNF281 ΔΔCT (vs DMSO): −0.092
